From patent US10273233B2, “Inhibitors of influenza viruses replication” (Vertex Pharmaceuticals Incorporated, priority 2015, dated 2019) come the findings set out here.

pEC50: −log10 of the molar value.

The pEC50 is the negative decadic logarithm of the EC50, by convention in mol/L.

The subject of one experiment is influenza B. The experiment is described as follows: Influenza B mouse model, Compound (1) with oseltamivir. The format is in vivo, Mice. Here is the method:
The consequence of combining Compound (1) and oseltamivir was explored in the influenza B mouse model. Mice were dosed prophylactically with vehicle (10 mL/kg 0.5% MC), 10 mg/kg oseltamivir, or oseltamivir in combination with Compound (1) at 10 mg/kg, 30 mg/kg or 60 mg/kg BID and treatment continued for 10 days.

For another experiment, the system named is A/Swine/Iowa/15/30. The experiment is described as follows: microbe, parasite or virus in culture. The format is cell-based, influenza A. The conditions noted are these: read-out: EC50.
Another experiment has as its system A/Hong Kong/8/68. The experiment is described as follows: 3-day CP assay in MDCK cells. As to conditions: Influenza A virus. The class given is cell-based.
For the next experiment, the system named is A/St. Petersburg8/2006. The experiment is described as follows: 3-day CP assay in MDCK cells. The class given is cell-based. The conditions noted are these: Influenza A virus.
The next experiment deals with A/Virginia/01/2006. The experiment is described as follows: 3-day CP assay in MDCK cells. The format is cell-based. As to conditions: Influenza A virus.

As to `CC(C)(C)[C@@H](CC(=O)O)Nc1nc(-c2c[nH]c3ncc(F)cc23)ncc1F` [Compound (1)], in the experiment on influenza B (10, 30 or 60 mg/kg BID Compound (1) in combination with oseltamivir 10 mg/kg BID, prophylactic, 10 days), the “survival benefit and protection from BW and lung function loss” value is “the same survival benefit and protection from BW and lung function loss as oseltamivir treatment alone”. In addition, the “interaction when added to oseltamivir therapy” value in the experiment with influenza B (Compound (1) added to oseltamivir therapy) is reported as “no negative interaction”. The “activity against influenza B” value with influenza B (mouse, in vivo) is recorded as “lack of Compound (1) activity against influenza B”. In addition, the pEC50 in the experiment with A/Swine/Iowa/15/30 was 8.37; in the experiment on A/Hong Kong/8/68 it was 8.72; with A/St. Petersburg8/2006 it was 8.89; in the experiment on A/Virginia/01/2006, 7.92.
